# Experiments:
# chymotrypsin = chymotrypsin (Bos taurus, UniProt P00766); experiment: Proteolyse in vitro: chymotrypsic hydrolyse, liberated daunorubicin derivative analysed by thin layer chromatography; assay type: biochemical; conditions: Tris-HCl buffer 0.05 M, CaCl2 10 mM, pH 8.0; TLC analysis
# Protocol: The chymotrypsic hydrolyse is effected in a Tris-HCl buffer 0.05 M, CaCl2 10 mM at pH=8.0.
# On analysis, the derivatives of the daunorubicin are liberated after enzymatic hydrolysis, by thin layer chromatography.
# [1] = comparison value, source not given; cited from earlier work
# trypsin = target: T1, trypsin (Bos taurus, UniProt P00760); experiment: Proteolyse in vitro: trypsic hydrolysis, liberated daunorubicin derivative analysed by thin layer chromatography; assay type: biochemical; conditions: 0.1M sodium bicarbonate, CaCl2 10 mM, pH 8.7; TLC analysis
# T1 construct: gene PRSS1
# T1 sequence (P00760 24-246): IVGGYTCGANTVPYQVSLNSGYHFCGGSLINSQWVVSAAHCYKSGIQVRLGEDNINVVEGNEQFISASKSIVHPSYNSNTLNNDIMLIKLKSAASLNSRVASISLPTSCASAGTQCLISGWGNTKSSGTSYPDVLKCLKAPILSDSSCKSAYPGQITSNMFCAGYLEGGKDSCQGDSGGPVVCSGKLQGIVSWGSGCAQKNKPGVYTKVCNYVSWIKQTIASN
# Protocol: On analysis, the derivatives of the daunorubicin are liberated after enzymatic hydrolysis, by thin layer chromatography. For example:
# Trypsic hydrolysis is carried out in a 0.1M solution of sodium bicarbonate, CaCl2, 10 mM at pH, 8.7.
# [2] = Localization of radiolabelled Daunorubicin drugs in organs of 3 LL tumor-bearing mice; conditions: i.v. 100 micrograms Daunorubicin equivalent, 48 or 72 hours after injection
# Protocol: The radiolabelled Daunorubicin drugs (14-^14 C) are injected intravenously 14 days after implantation of 10^5 3 LL cells. Either 100 micrograms of free Daunorubicin (5×10^5 cpm), or 100 micrograms of Daunorubicin in macromolecular form (5×10^5 cpm) is injected. Localization is measured after the intravenous injection of various products.
# The mice are sacrificed by cervical elongation 48 hours or 72 hours after injection. The organs are removed, dissolved by a tissue solubilizing agent (NCS Amersham) at a rate of 200 mg to 300 mg of organ/ml of solubilizing agent, then counted in a liquid scintillant. […] The results are recapitulated in FIG. 3.
# 3 LL cells = experiment: In vivo antitumor activity on mice implanted with 3 LL cells (tumor growth and survival); design: species or system C 57 BL/6 male mice; conditions: for inhibition of tumor growth relative to the control lot: Daunorubicin 7x10 micrograms, polymer 8x200 microgram equivalents of Daunorubicin (i.v. days 2, 6, 10, i.p. days 14-30), FIG. 4
# Protocol: The in vivo antitumor activity of the macromolecular drugs is evaluated on C 57 BL/6 male mice aged a total of about 10 weeks. 10^5 3 LL cells are implanted in each mouse by intramuscular injection of 100 microliters of a cellular suspension of 10^6 cells/ml in the right posterior paw.
# One lot of 10 mice, serving as a control, is injected with 7×100 microliters of physiologic serum.
# One lot of 10 mice is treated with 7×10 micrograms of free Daunorubicin (dosage limited due to the toxicity of the free drug).
# After intramuscular injection of the tumoral cells, the macromolecular prodrug is injected intravenously at days 2, 6 and 10, then intraperitoneally at days 14, 18, 22, 26 and 30.
# Two parameters are recorded to evaluate the in vivo antitumoral activity: the inhibition of tumor growth and animal survival.
Molecule,derivative of daunorubicin liberated after chymotrypsic hydrolysis (chymotrypsin),spleen mass / atrophy [2],inhibition of tumor growth relative to the control lot (3 LL cells),further results
"polycarboxylated linear polymer of 2-N-acryloylamino-2-hydroxymethyl-1,3-propanediol substituted by the -Gly-Gly-L-Tyr-Daunorubicin sequence [Example 1]",frees the daunorubicin,–,–,–
COc1cccc2c1C(=O)c1c(O)c3c(c(O)c1C2=O)C[C@@](O)(C(=O)CO)C[C@@H]3O[C@H]1C[C@H](N)[C@H](O)[C@H](C)O1 [adriamycin],–,–,–,time to disappear from plasma [1]: 20 min
"polycarboxylated linear polymer of 2-N-acryloylamino-2-hydroxymethyl-1,3-propanediol substituted by the Gly-L-Pro-L-Arg-L-Leu-Daunorubicin sequence [Example 6]",–,–,–,derivative of daunorubicin liberated after trypsic hydrolysis (trypsin): freeing leucyl-daunorubicin
"polycarboxylated linear polymer of 2-N-acryloylamino-2-hydroxymethyl-1,3-propanediol substituted by the -Gly-Gly-L-Tyr-L-Leu-Daunorubicin sequence [Example 2]",liberates leucyl-daunorubicin,mass comparable to that of the healthy animals,significant inhibition of tumor growth,"T/C (survival of the animals treated relative to the control animals) (3 LL cells; 8x200 microgram equivalents of Daunorubicin, FIG. 5): 145"
COc1cccc2c1C(=O)c1c(O)c3c(c(O)c1C2=O)C[C@@](O)(C(C)=O)C[C@@H]3O[C@H]1C[C@H](N)[C@H](O)[C@H](C)O1 [Daunorubicin],–,severe atrophy of the spleen,does not influence in a significant manner tumoral growth,radioactivity of the spleen [2]: significant accumulation of the radioactivity
"polycarboxylated linear polymer of 2-N-acryloylamino-2-hydroxymethyl-1,3-propanediol substituted by the Gly-L-Phe-L-Ala-L-Leu-Daunorubicin sequence [Example 3]",frees alaninyl-leucyl-daunorubicin,–,–,–
